Laboratory results taken from ChEMBL document CHEMBL3638666, “Selective kinase inhibitors” (2013).

Assays:
[1] = target: Non-receptor tyrosine-protein kinase TYK2 (Homo sapiens, UniProt P29597); test: (§1) In Vitro Kinase Enzyme Assay: In vitro kinase enzyme assay using Jak3, Jak2, Jak1, and Tyk2.
[2] = target: T1, Tyrosine-protein kinase JAK3 (Homo sapiens, UniProt P52333); test: as §1
T1 sequence (P52333 whole entry): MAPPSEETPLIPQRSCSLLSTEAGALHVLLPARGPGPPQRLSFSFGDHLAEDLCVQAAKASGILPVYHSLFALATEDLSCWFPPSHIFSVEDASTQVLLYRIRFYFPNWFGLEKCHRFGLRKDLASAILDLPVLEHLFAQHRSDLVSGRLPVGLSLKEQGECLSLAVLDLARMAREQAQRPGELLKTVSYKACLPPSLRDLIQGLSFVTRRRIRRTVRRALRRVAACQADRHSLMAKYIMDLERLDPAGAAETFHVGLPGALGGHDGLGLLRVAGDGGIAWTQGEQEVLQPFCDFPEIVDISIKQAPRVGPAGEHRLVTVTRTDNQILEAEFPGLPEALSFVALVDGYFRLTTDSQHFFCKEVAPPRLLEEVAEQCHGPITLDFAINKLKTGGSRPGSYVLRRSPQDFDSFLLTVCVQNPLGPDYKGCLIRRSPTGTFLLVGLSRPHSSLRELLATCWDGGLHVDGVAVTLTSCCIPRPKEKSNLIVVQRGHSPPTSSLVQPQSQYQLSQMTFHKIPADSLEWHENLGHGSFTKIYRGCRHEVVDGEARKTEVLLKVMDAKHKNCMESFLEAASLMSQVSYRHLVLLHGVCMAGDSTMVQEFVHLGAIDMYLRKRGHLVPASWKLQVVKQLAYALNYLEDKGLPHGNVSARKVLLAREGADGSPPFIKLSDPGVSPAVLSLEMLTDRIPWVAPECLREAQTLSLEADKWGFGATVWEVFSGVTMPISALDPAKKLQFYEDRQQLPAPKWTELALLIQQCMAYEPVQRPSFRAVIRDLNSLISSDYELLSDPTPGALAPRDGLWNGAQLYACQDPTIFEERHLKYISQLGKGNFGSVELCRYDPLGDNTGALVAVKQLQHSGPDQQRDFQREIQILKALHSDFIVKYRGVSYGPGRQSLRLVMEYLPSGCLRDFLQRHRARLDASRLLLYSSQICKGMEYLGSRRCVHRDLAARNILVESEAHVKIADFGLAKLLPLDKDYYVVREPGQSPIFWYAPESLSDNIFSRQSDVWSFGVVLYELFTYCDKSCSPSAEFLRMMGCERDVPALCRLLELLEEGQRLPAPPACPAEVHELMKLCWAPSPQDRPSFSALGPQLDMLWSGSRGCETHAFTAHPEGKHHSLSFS

[3] = target: Tyrosine-protein kinase JAK2 (Homo sapiens, UniProt O60674); test: as §1
Chain of Tyrosine-protein kinase JAK2 (O60674 whole entry): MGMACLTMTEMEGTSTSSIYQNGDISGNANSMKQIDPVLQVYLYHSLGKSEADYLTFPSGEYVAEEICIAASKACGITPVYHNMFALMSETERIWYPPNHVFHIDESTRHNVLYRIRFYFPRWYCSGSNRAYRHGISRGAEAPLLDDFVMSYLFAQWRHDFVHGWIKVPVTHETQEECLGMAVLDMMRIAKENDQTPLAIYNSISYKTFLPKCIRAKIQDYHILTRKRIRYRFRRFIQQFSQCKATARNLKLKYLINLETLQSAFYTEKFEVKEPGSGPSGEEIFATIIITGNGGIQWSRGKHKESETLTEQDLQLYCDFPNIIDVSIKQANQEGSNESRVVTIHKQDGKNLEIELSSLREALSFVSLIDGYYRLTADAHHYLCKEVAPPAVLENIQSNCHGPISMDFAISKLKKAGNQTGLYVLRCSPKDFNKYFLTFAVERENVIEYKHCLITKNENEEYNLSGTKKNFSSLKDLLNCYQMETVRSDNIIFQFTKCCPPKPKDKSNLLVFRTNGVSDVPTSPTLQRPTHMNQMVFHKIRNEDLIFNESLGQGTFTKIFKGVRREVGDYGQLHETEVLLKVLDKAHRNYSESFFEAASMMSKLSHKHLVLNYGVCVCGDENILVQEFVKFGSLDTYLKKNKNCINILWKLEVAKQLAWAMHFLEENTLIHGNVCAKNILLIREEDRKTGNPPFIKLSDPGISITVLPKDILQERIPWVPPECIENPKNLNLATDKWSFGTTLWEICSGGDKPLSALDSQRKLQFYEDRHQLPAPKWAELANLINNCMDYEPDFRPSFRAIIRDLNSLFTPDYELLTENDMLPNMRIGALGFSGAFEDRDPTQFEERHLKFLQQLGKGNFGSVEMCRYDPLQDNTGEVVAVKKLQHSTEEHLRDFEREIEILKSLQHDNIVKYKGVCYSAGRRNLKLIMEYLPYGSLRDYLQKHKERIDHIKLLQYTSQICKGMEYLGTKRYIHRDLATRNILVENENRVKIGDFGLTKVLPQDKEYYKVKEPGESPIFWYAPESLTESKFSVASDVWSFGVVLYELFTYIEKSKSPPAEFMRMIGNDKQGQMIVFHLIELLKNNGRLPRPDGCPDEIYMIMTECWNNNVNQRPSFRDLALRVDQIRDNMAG

[4] = target: Tyrosine-protein kinase JAK1 (Homo sapiens, UniProt P23458); test: as §1
Chain of Tyrosine-protein kinase JAK1 (P23458 whole entry): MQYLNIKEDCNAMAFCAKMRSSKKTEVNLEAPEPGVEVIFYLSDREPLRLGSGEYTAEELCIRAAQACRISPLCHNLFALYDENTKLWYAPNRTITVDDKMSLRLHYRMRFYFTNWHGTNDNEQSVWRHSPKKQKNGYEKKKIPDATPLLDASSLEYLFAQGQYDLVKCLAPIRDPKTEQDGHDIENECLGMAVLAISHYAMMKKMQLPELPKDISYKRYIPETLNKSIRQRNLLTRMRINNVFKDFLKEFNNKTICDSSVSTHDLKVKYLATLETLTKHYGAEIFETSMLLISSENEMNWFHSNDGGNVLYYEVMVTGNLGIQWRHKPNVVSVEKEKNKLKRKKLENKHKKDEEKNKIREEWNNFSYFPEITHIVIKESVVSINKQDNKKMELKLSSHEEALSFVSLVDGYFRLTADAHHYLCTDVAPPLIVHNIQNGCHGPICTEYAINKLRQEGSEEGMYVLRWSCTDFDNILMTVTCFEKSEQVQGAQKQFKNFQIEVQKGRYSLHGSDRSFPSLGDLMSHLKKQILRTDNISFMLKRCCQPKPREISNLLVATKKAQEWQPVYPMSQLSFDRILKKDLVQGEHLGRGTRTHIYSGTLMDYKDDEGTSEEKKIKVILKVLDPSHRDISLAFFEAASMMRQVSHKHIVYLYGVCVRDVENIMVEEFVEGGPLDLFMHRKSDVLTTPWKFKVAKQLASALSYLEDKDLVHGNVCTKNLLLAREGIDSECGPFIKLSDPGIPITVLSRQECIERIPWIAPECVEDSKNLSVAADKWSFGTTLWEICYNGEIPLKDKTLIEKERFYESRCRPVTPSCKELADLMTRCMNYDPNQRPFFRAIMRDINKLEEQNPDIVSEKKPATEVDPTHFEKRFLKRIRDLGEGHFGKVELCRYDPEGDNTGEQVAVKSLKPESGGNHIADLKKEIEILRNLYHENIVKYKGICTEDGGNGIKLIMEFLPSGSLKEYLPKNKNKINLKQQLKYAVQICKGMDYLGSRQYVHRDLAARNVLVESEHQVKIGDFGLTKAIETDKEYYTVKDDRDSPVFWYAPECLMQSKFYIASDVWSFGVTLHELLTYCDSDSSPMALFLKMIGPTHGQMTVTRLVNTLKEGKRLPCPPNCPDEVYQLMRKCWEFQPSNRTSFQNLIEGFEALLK

Chain of Non-receptor tyrosine-protein kinase TYK2 (P29597 whole entry): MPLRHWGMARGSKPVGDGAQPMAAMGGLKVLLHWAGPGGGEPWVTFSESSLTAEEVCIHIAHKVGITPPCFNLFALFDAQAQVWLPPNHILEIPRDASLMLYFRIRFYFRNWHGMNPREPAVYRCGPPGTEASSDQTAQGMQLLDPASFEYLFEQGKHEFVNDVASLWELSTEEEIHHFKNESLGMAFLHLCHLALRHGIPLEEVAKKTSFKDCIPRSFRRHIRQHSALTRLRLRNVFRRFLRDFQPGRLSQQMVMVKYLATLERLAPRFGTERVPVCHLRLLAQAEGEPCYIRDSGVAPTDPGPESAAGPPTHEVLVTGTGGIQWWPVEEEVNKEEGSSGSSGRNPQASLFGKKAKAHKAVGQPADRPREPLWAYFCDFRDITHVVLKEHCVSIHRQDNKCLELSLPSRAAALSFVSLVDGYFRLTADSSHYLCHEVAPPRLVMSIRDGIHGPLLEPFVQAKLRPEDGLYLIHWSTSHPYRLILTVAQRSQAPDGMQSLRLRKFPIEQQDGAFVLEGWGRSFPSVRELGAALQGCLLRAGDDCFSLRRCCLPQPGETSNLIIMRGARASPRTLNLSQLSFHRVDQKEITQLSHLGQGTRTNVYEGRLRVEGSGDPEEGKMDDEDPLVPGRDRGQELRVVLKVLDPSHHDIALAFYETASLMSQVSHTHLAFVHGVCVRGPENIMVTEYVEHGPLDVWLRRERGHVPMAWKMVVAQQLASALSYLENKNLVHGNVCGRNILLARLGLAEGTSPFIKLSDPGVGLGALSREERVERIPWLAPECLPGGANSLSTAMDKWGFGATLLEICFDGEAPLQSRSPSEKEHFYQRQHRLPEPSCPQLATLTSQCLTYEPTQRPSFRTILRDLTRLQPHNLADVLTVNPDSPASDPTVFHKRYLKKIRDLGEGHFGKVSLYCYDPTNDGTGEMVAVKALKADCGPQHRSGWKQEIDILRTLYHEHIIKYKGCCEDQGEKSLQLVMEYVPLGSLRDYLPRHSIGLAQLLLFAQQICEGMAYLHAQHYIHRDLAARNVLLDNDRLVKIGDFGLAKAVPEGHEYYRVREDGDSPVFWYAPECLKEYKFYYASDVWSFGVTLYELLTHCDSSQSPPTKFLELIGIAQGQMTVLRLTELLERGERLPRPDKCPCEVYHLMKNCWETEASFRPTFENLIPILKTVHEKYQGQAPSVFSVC

Structure (SMILES): O=C(CBr)Nc1cccc(-c2cnc3ccccc3n2)c1
- IC50 [1]: > 10 µM
- IC50 [2]: 0.0003 µM
- IC50 [3]: > 10 µM
- IC50 [4]: > 10 µM
